# In patent US20100267561A1, “HERBICIDAL PYRIDAZINONE DERIVATIVES” (priority 2007, published 2010):
# Experiments:
# Type in all cases: in vivo
# wild oat (Avena fatua) = assay: Test B pre-/postemergence plant response; details: for Oat, Wild plant response rating: 8 g ai/ha
# How it was run: (§1)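 Preemergence and postemergence (plants 2-18 cm, 1- to 4-leaf stage) applications used test chemicals in a non-phytotoxic solvent with surfactant. Plants were held in a greenhouse 13 to 15 days, then rated visually against controls on a 0-100 scale (0 no effect, 100 complete control).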
# [1] = test system: green foxtail (Setaria viridis); assay: Test B pre-/postemergence plant response; details: for Foxtail, Green plant response rating: 8 g ai/ha
# How it was run: as §1
# corn (Zea mays) = assay: Test B pre-/postemergence plant response; details: for Corn plant response rating: 8 g ai/ha
# How it was run: as §1
# [2] = test system: common (oilseed) sunflower (Helianthus annuus); assay: Test B pre-/postemergence plant response; details: Preemergence
# How it was run: as §1
# [3] = test system: large crabgrass (Digitaria sanguinalis); assay: Test B pre-/postemergence plant response; details: for Crabgrass, Large plant response rating: 8 g ai/ha
# How it was run: as §1
# [4] = test system: wheat (Triticum aestivum); assay: Test B pre-/postemergence plant response; details: for Wheat plant response rating: 8 g ai/ha
# How it was run: as §1
# [5] = test system: morningglory (Ipomoea coccinea); assay: Test B pre-/postemergence plant response; details: for Morningglory plant response rating: 8 g ai/ha
# How it was run: as §1
# [6] = test system: velvetleaf (Abutilon theophrasti); assay: Test B pre-/postemergence plant response; details: for Velvetleaf plant response rating: 8 g ai/ha
# How it was run: as §1
# [7] = test system: downy bromegrass (Bromus tectorum); assay: Test B pre-/postemergence plant response; details: for Bromegrass, Downy plant response rating: 8 g ai/ha
# How it was run: as §1
# [8] = test system: surinam grass (Brachiaria decumbens); assay: Test B pre-/postemergence plant response; details: for Surinam Grass plant response rating: 8 g ai/ha
# How it was run: as §1
# [9] = test system: barnyardgrass (Echinochloa crus-galli); assay: Test B flooded paddy test plant response
# How it was run: (§2)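 Compounds were added directly to paddy water over 2-leaf-stage plants in pots flooded 3 cm above soil, water depth maintained. Visual injury scored against controls after 13 to 15 days in greenhouse, 0 (none) to 100 (complete control); dash indicates no result.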
# [10] = test system: umbrella sedge (Cyperus difformis); assay: Test B flooded paddy test plant response
# How it was run: as §2
# [11] = test system: ducksalad (Heteranthera limosa); assay: Test B flooded paddy test plant response
# How it was run: as §2
# rice (Oryza sativa) = assay: Test B flooded paddy test plant response
# How it was run: as §2
# [12] = Postemergence, 16 g ai/ha, scale 0 to 100
# [13] = Postemergence, 31 g ai/ha, scale 0 to 100, 0 no effect, 100 complete control
# [14] = Postemergence, 62 g ai/ha, scale 0 to 100, 0 no effect, 100 complete control
# [15] = Preemergence, 16 g ai/ha, scale 0 to 100 (0 no effect, 100 complete control)
# [16] = Preemergence, 31 g ai/ha, scale 0 to 100 (0 no effect, 100 complete control)
# [17] = Preemergence, 62 g ai/ha, scale 0 to 100
# [18] = Preemergence, 31 g ai/ha, 0 to 100 scale, 0 no effect, 100 complete control
# [19] = Preemergence, 62 g ai/ha, 0 to 100 scale, 0 no effect, 100 complete control
# [20] = Flood (flooded paddy test), 62 g ai/ha, scale 0 to 100, 0 no effect, 100 complete control
# [21] = Flood (flooded paddy test), 125 g ai/ha, scale 0 to 100, 0 no effect, 100 complete control
# [22] = Flood (flooded paddy test), 250 g ai/ha, scale 0 to 100, 0 no effect, 100 complete control
# [23] = Flood, 31 g ai/ha, scale 0 to 100
compound,measurement,setting,value
CCc1cc(-c2ccc(Cl)cc2)nn1-c1c(OC(=O)OC(C)C)cnn(C)c1=O [Compound 41],"Oat, Wild plant response rating","wild oat (Avena fatua); postemergence, 0-100 scale",100
same,"Plant response rating, Oat, Wild",wild oat (Avena fatua); [12],100
same,"Plant response rating, Oat, Wild",wild oat (Avena fatua); [13],100
same,"Plant response rating, Oat, Wild",wild oat (Avena fatua); [14],100
same,"Plant response rating, Oat, Wild",wild oat (Avena fatua); [15],85
same,"Plant response rating, Oat, Wild",wild oat (Avena fatua); [16],95
same,"Plant response rating, Oat, Wild",wild oat (Avena fatua); [17],95
same,"Oat, Wild plant response rating","wild oat (Avena fatua); Preemergence, scale 0 to 100",70
same,"Foxtail, Green plant response rating","[1]; postemergence, 0-100 scale",85
same,"Plant response rating, Foxtail, Green",[1]; [12],100
same,"Plant response rating, Foxtail, Green",[1]; [13],100
same,"Plant response rating, Foxtail, Green",[1]; [14],100
same,"Plant response rating, Foxtail, Green",[1]; [15],100
same,"Plant response rating, Foxtail, Green",[1]; [18],100
same,"Plant response rating, Foxtail, Green",[1]; [17],100
same,"Foxtail, Green plant response rating","[1]; Preemergence, scale 0 to 100",100
same,Corn plant response rating,"corn (Zea mays); postemergence, 0-100 scale",85
same,"Plant response rating, Corn",corn (Zea mays); [12],85
same,"Plant response rating, Corn",corn (Zea mays); [13],95
same,"Plant response rating, Corn",corn (Zea mays); [14],95
same,"Plant response rating, Corn",corn (Zea mays); [15],65
same,"Plant response rating, Corn",corn (Zea mays); [18],85
same,"Plant response rating, Corn",corn (Zea mays); [17],95
same,Corn plant response rating,"corn (Zea mays); Preemergence, scale 0 to 100",45
same,"Plant response rating, Sunflower","[2]; 16 g ai/ha, scale 0 to 100 (0 no effect, 100 complete control)",0
same,"Plant response rating, Sunflower","[2]; 31 g ai/ha, scale 0 to 100 (0 no effect, 100 complete control)",0
same,"Plant response rating, Sunflower","[2]; 62 g ai/ha, scale 0 to 100",0
same,Sunflower plant response rating,"[2]; 8 g ai/ha, scale 0 to 100",0
same,"Crabgrass, Large plant response rating","[3]; postemergence, 0-100 scale",70
same,"Plant response rating, Crabgrass, Large",[3]; [12],85
same,"Plant response rating, Crabgrass, Large",[3]; [13],100
same,"Plant response rating, Crabgrass, Large",[3]; [14],100
same,"Plant response rating, Crabgrass, Large",[3]; [15],0
same,"Plant response rating, Crabgrass, Large",[3]; [18],0
same,"Plant response rating, Crabgrass, Large",[3]; [17],20
same,"Crabgrass, Large plant response rating","[3]; Preemergence, scale 0 to 100",0
same,Wheat plant response rating,"[4]; postemergence, 0-100 scale",80
same,"Plant response rating, Wheat",[4]; [12],85
same,"Plant response rating, Wheat",[4]; [14],85
same,"Plant response rating, Wheat",[4]; [15],15
same,"Plant response rating, Wheat",[4]; [16],60
same,"Plant response rating, Wheat",[4]; [19],100
same,Wheat plant response rating,"[4]; Preemergence, scale 0 to 100",10
same,Morningglory plant response rating,"[5]; postemergence, 0-100 scale",0
same,"Plant response rating, Morningglory",[5]; [12],0
same,"Plant response rating, Morningglory",[5]; [13],0
same,"Plant response rating, Morningglory",[5]; [14],0
same,"Plant response rating, Morningglory",[5]; [15],0
same,"Plant response rating, Morningglory",[5]; [16],0
same,"Plant response rating, Morningglory",[5]; [17],0
same,Morningglory plant response rating,"[5]; Preemergence, scale 0 to 100",0
same,Velvetleaf plant response rating,"[6]; postemergence, 0-100 scale",0
same,"Plant response rating, Velvetleaf",[6]; [12],0
same,"Plant response rating, Velvetleaf",[6]; [14],0
same,"Plant response rating, Velvetleaf",[6]; [15],0
same,"Plant response rating, Velvetleaf",[6]; [16],0
same,"Plant response rating, Velvetleaf",[6]; [19],0
same,Velvetleaf plant response rating,"[6]; Preemergence, scale 0 to 100",0
same,"Bromegrass, Downy plant response rating","[7]; postemergence, 0-100 scale",30
same,"Plant response rating, Bromegrass, Downy",[7]; [12],50
same,"Plant response rating, Bromegrass, Downy",[7]; [13],60
same,"Plant response rating, Bromegrass, Downy",[7]; [14],85
same,"Plant response rating, Bromegrass, Downy",[7]; [15],70
same,"Plant response rating, Bromegrass, Downy",[7]; [18],75
same,"Plant response rating, Bromegrass, Downy",[7]; [17],80
same,"Bromegrass, Downy plant response rating","[7]; Preemergence, scale 0 to 100",70
same,Surinam Grass plant response rating,"[8]; postemergence, 0-100 scale",100
same,"Plant response rating, Surinam Grass",[8]; [12],100
same,"Plant response rating, Surinam Grass",[8]; [14],100
same,"Plant response rating, Surinam Grass",[8]; [15],40
same,"Plant response rating, Surinam Grass",[8]; [16],55
same,"Plant response rating, Surinam Grass",[8]; [19],100
same,Surinam Grass plant response rating,"[8]; Preemergence, scale 0 to 100",0
same,"Plant response rating, Barnyardgrass",[9]; [20],75
same,"Plant response rating, Barnyardgrass",[9]; [21],80
same,"Plant response rating, Barnyardgrass",[9]; [22],95
same,"Plant response rating, Barnyardgrass",[9]; [23],60
same,"Plant response rating, Sedge, Umbrella",[10]; [20],0
same,"Plant response rating, Sedge, Umbrella",[10]; [21],0
same,"Plant response rating, Sedge, Umbrella",[10]; [22],85
same,"Plant response rating, Sedge, Umbrella",[10]; [23],0
same,"Plant response rating, Ducksalad",[11]; [20],0
same,"Plant response rating, Ducksalad",[11]; [21],40
same,"Plant response rating, Ducksalad",[11]; [22],70
same,"Plant response rating, Ducksalad",[11]; [23],0
same,"Plant response rating, Rice",rice (Oryza sativa); [20],20
same,"Plant response rating, Rice",rice (Oryza sativa); [21],50
same,"Plant response rating, Rice",rice (Oryza sativa); [22],80
same,"Plant response rating, Rice",rice (Oryza sativa); [23],15
